Relative viability data for seven cell lines are collected here from the supplement of paper PMC10307832.

Common to all, as to experiment: relative viability (nuclei count vs DMSO), 5 days (fraction); higher = more cells survive
Compound in the experiment “Vismodegib + Lapatinib”: CS(=O)(=O)c1ccc(C(=O)Nc2ccc(Cl)c(-c3ccccn3)c2)c(Cl)c1 [Vismodegib] + CS(=O)(=O)CCNCc1ccc(-c2ccc3ncnc(Nc4ccc(OCc5cccc(F)c5)c(Cl)c4)c3c2)o1 [Lapatinib] (partner 2 µM)
In outline:
(§1)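 Relative viability divides the nuclei count in treated wells by that in vehicle wells. Lung cancer cell lines were seeded in 1536-well plates, dosed by pin tool the next day, and fixed and stained after 5 days in one step with final 0.05% Triton X-100, 1% formaldehyde and 1 ug/ml Hoechst. Dosing was a single drug or a fixed anchor-drug dose plus five library-drug doses (not always all listed) in √10 steps, and values are medians of duplicate plates imaged at 4×.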

Compound in the experiment “VE-821 + Crizotinib”: CS(=O)(=O)c1ccc(-c2cnc(N)c(C(=O)Nc3ccccc3)n2)cc1 [VE-821] + C[C@@H](Oc1cc(-c2cnn(C3CCNCC3)c2)cnc1N)c1c(Cl)ccc(F)c1Cl [Crizotinib] (partner 1 µM)
Put shortly:
as §1

Compound in the experiment “Ruxolitinib + Linsitinib”: N#CC[C@H](C1CCCC1)n1cc(-c2ncnc3[nH]ccc23)cn1 [Ruxolitinib] + C[C@]1(O)C[C@@H](c2nc(-c3ccc4ccc(-c5ccccc5)nc4c3)c3c(N)nccn32)C1 [Linsitinib] (partner 1 µM)
In outline: as §1

Compound in the experiment “Ruxolitinib + Tozasertib”: N#CC[C@H](C1CCCC1)n1cc(-c2ncnc3[nH]ccc23)cn1 [Ruxolitinib] + Cc1cc(Nc2cc(N3CCN(C)CC3)nc(Sc3ccc(NC(=O)C4CC4)cc3)n2)n[nH]1 [Tozasertib] (partner 0.1 µM)
Put shortly: as §1

COR-L 105: the relative viability with Vismodegib + Lapatinib (first compound 0.08 µM) is 0.36; in the experiment with Vismodegib + Lapatinib (first compound 0.253 µM), 0.38; in the experiment with Vismodegib + Lapatinib (first compound 0.8 µM) it was 0.392; in the experiment with Vismodegib + Lapatinib (first compound 2.53 µM) it was 0.363; with Vismodegib + Lapatinib (first compound 8 µM) it was 0.337; in the experiment with VE-821 + Crizotinib (first compound 0.08 µM), 1.03. Moreover, the relative viability in the experiment with VE-821 + Crizotinib (first compound 0.253 µM) worked out at 0.678; with VE-821 + Crizotinib (first compound 0.8 µM), 0.582; with VE-821 + Crizotinib (first compound 2.53 µM), 0.546; with VE-821 + Crizotinib (first compound 8 µM), 0.385; in the experiment with Ruxolitinib + Linsitinib (first compound 0.08 µM) it was 0.95; with Ruxolitinib + Linsitinib (first compound 0.253 µM) it was 0.719. Further, the relative viability with Ruxolitinib + Linsitinib (first compound 0.8 µM) amounted to 0.912; in the experiment with Ruxolitinib + Linsitinib (first compound 2.53 µM) it was 0.642; with Ruxolitinib + Linsitinib (first compound 8 µM), 0.758; with Ruxolitinib + Tozasertib (first compound 0.08 µM), 0.383; with Ruxolitinib + Tozasertib (first compound 0.253 µM) it was 0.314; with Ruxolitinib + Tozasertib (first compound 0.8 µM) it was 0.423. The relative viability in the experiment with Ruxolitinib + Tozasertib (first compound 2.53 µM) came to 0.475; with Ruxolitinib + Tozasertib (first compound 8 µM) it was 0.35.
Turning to Calu-6, the relative viability stood at 1.13 in the experiment with Vismodegib + Lapatinib (first compound 0.08 µM); 1.08 with Vismodegib + Lapatinib (first compound 0.253 µM); 1.06 with Vismodegib + Lapatinib (first compound 0.8 µM); 1.09 with Vismodegib + Lapatinib (first compound 2.53 µM); 1.03 with Vismodegib + Lapatinib (first compound 8 µM); 0.97 in the experiment with VE-821 + Crizotinib (first compound 0.08 µM). Also, the relative viability with VE-821 + Crizotinib (first compound 0.253 µM) is 0.844; in the experiment with VE-821 + Crizotinib (first compound 0.8 µM), 0.795; with VE-821 + Crizotinib (first compound 2.53 µM), 0.684; in the experiment with VE-821 + Crizotinib (first compound 8 µM), 0.466; with Ruxolitinib + Linsitinib (first compound 0.08 µM), 0.94; with Ruxolitinib + Linsitinib (first compound 0.253 µM), 0.923. The relative viability in the experiment with Ruxolitinib + Linsitinib (first compound 0.8 µM) was 1.01; with Ruxolitinib + Linsitinib (first compound 8 µM), 0.882.
Take ChaGo-K-1: the relative viability with VE-821 + Crizotinib (first compound 0.08 µM) was 1.18; with VE-821 + Crizotinib (first compound 0.253 µM), 1.18; with VE-821 + Crizotinib (first compound 0.8 µM), 1; with VE-821 + Crizotinib (first compound 2.53 µM), 1.17; with VE-821 + Crizotinib (first compound 8 µM), 0.989; with Ruxolitinib + Tozasertib (first compound 0.08 µM), 0.246. For the same cell line, the relative viability in the experiment with Ruxolitinib + Tozasertib (first compound 0.253 µM) worked out at 0.243; with Ruxolitinib + Tozasertib (first compound 0.8 µM), 0.454; with Ruxolitinib + Tozasertib (first compound 2.53 µM) it was 0.176; in the experiment with Ruxolitinib + Tozasertib (first compound 8 µM), 0.195.
For the cell line EBC-1, the relative viability was found to be 0.215 with Vismodegib + Lapatinib (first compound 0.08 µM); 0.189 with Vismodegib + Lapatinib (first compound 0.253 µM); 0.205 in the experiment with Vismodegib + Lapatinib (first compound 0.8 µM); 0.195 with Vismodegib + Lapatinib (first compound 2.53 µM); 0.215 with Vismodegib + Lapatinib (first compound 8 µM); 0.181 with VE-821 + Crizotinib (first compound 0.08 µM). For the same cell line, the relative viability with VE-821 + Crizotinib (first compound 0.253 µM) amounted to 0.189; with VE-821 + Crizotinib (first compound 0.8 µM) it was 0.155; with VE-821 + Crizotinib (first compound 2.53 µM) it was 0.179; with VE-821 + Crizotinib (first compound 8 µM), 0.202; in the experiment with Ruxolitinib + Linsitinib (first compound 0.08 µM), 0.831; with Ruxolitinib + Linsitinib (first compound 0.253 µM) it was 1.1. For the same cell line, the results for the relative viability with Ruxolitinib + Linsitinib (first compound 0.8 µM), with Ruxolitinib + Linsitinib (first compound 2.53 µM) and with Ruxolitinib + Linsitinib (first compound 8 µM) were 1.06, 0.783 and 0.823, respectively.
For EKVX, the relative viability with Vismodegib + Lapatinib (first compound 0.08 µM) is 0.21; in the experiment with Vismodegib + Lapatinib (first compound 0.253 µM), 0.223; in the experiment with Vismodegib + Lapatinib (first compound 0.8 µM), 0.164; in the experiment with Vismodegib + Lapatinib (first compound 2.53 µM) it was 0.243; with Vismodegib + Lapatinib (first compound 8 µM), 0.197; with VE-821 + Crizotinib (first compound 0.08 µM), 1.25. Moreover, the relative viability with VE-821 + Crizotinib (first compound 0.253 µM) came to 0.93; in the experiment with VE-821 + Crizotinib (first compound 0.8 µM), 0.849; in the experiment with VE-821 + Crizotinib (first compound 2.53 µM) it was 0.958; with VE-821 + Crizotinib (first compound 8 µM), 0.878; in the experiment with Ruxolitinib + Linsitinib (first compound 0.08 µM) it was 0.876; with Ruxolitinib + Linsitinib (first compound 0.253 µM) it was 0.897. Also, the relative viability with Ruxolitinib + Linsitinib (first compound 0.8 µM) was determined as 0.966; with Ruxolitinib + Linsitinib (first compound 2.53 µM), 0.893; in the experiment with Ruxolitinib + Linsitinib (first compound 8 µM), 0.813; with Ruxolitinib + Tozasertib (first compound 0.08 µM), 0.392; with Ruxolitinib + Tozasertib (first compound 0.253 µM) it was 0.439; in the experiment with Ruxolitinib + Tozasertib (first compound 0.8 µM) it was 0.463. In addition, the relative viability in the experiment with Ruxolitinib + Tozasertib (first compound 2.53 µM) is 0.282; with Ruxolitinib + Tozasertib (first compound 8 µM), 0.443.
EMC-BAC-2: the relative viability with Vismodegib + Lapatinib (first compound 0.08 µM) turned out to be 0.891; in the experiment with Vismodegib + Lapatinib (first compound 0.253 µM), 0.857; with Vismodegib + Lapatinib (first compound 0.8 µM), 0.839; in the experiment with Vismodegib + Lapatinib (first compound 2.53 µM), 0.933; with Vismodegib + Lapatinib (first compound 8 µM), 0.9; in the experiment with VE-821 + Crizotinib (first compound 0.08 µM), 0.899. Moreover, the relative viability in the experiment with VE-821 + Crizotinib (first compound 0.253 µM) is 0.763; in the experiment with VE-821 + Crizotinib (first compound 0.8 µM), 0.737; with VE-821 + Crizotinib (first compound 2.53 µM) it was 0.731; with VE-821 + Crizotinib (first compound 8 µM) it was 0.651; in the experiment with Ruxolitinib + Linsitinib (first compound 0.08 µM), 0.799; in the experiment with Ruxolitinib + Linsitinib (first compound 0.253 µM) it was 0.822. Moreover, the relative viability with Ruxolitinib + Linsitinib (first compound 0.8 µM) was determined as 0.87; with Ruxolitinib + Linsitinib (first compound 2.53 µM) it was 0.744; with Ruxolitinib + Linsitinib (first compound 8 µM) it was 0.66; with Ruxolitinib + Tozasertib (first compound 0.08 µM), 0.292; with Ruxolitinib + Tozasertib (first compound 0.253 µM), 0.288; with Ruxolitinib + Tozasertib (first compound 0.8 µM), 0.279. The results for the relative viability with Ruxolitinib + Tozasertib (first compound 2.53 µM) and with Ruxolitinib + Tozasertib (first compound 8 µM) were 0.262 and 0.236, respectively.
In the case of EPLC-272H, the relative viability in the experiment with Vismodegib + Lapatinib (first compound 0.08 µM) stood at 0.789; with Vismodegib + Lapatinib (first compound 0.253 µM), 0.893; with Vismodegib + Lapatinib (first compound 0.8 µM), 0.947; in the experiment with Vismodegib + Lapatinib (first compound 2.53 µM), 0.939; with Vismodegib + Lapatinib (first compound 8 µM) it was 0.91; with VE-821 + Crizotinib (first compound 0.08 µM), 1.04. Moreover, the relative viability with VE-821 + Crizotinib (first compound 0.253 µM) is 0.853; with VE-821 + Crizotinib (first compound 0.8 µM), 0.923; in the experiment with VE-821 + Crizotinib (first compound 2.53 µM) it was 1.19; in the experiment with VE-821 + Crizotinib (first compound 8 µM), 0.906; with Ruxolitinib + Linsitinib (first compound 0.08 µM), 1.26; with Ruxolitinib + Linsitinib (first compound 0.253 µM) it was 1.12. In addition, the relative viability came to 1.31 with Ruxolitinib + Linsitinib (first compound 0.8 µM); 1.19 with Ruxolitinib + Linsitinib (first compound 2.53 µM); 1.25 in the experiment with Ruxolitinib + Linsitinib (first compound 8 µM); 0.25 with Ruxolitinib + Tozasertib (first compound 0.08 µM); 0.407 with Ruxolitinib + Tozasertib (first compound 0.253 µM); 0.241 with Ruxolitinib + Tozasertib (first compound 0.8 µM). Also, the figures for the relative viability in the experiment with Ruxolitinib + Tozasertib (first compound 2.53 µM) and with Ruxolitinib + Tozasertib (first compound 8 µM) were 0.345 and 0.264, respectively.
